# Measured values as given in ChEMBL document CHEMBL1148682, “Cyclopentane-based human NK1 antagonists. Part 2: development of potent, orally active, water-soluble derivatives” (Bioorg Med Chem Lett, 2006).
# Experiment: Dissociation constant, pKa of the compound
# Format: physicochemical
row,SMILES,pKa
1,NC(=O)CNC1CCC(OCc2cc(C(F)(F)F)cc(C(F)(F)F)c2)C1c1ccccc1 (configuration not stated),6.6
2,C[C@@H](O[C@H]1CC[C@@H](N(C)Cc2c[nH]c(O)n2)[C@@H]1c1ccc(F)cc1)c1cc(C(F)(F)F)cc(C(F)(F)F)c1,6.2
3,C[C@@H](O[C@H]1CC[C@@H](N(C)CC(N)=O)[C@@H]1c1ccc(F)cc1)c1cc(C(F)(F)F)cc(C(F)(F)F)c1,5.3
4,CN(CC(N)=O)C1CCC(OCc2cc(C(F)(F)F)cc(C(F)(F)F)c2)C1c1ccccc1 (configuration not stated),5.8
5,C[C@@H](O[C@H]1CC[C@@H](N(C)Cc2n[nH]c(O)n2)[C@@H]1c1ccc(F)cc1)c1cc(C(F)(F)F)cc(C(F)(F)F)c1,4.7
6,CNC(=O)CN(C)[C@@H]1CC[C@H](O[C@H](C)c2cc(C(F)(F)F)cc(C(F)(F)F)c2)[C@H]1c1ccc(F)cc1,5.3
7,C[C@@H](O[C@H]1OCCN(Cc2n[nH]c(=O)[nH]2)[C@H]1c1ccc(F)cc1)c1cc(C(F)(F)F)cc(C(F)(F)F)c1 [APREPITANT],< 3.5
